29 compounds from patent US20230172207A1 (BASF SE, priority 2020, published 2023) can be followed below.

One assay relates to Septoria tritici. In words: Micro titer plate test against Septoria tritici causing leaf blotch on wheat (SEPTTR). The class given is cell-based. Conditions: 0.25 ppm.
Assay [1] concerns Phakopsora pachyrhizi (F129L). The assay is described as follows: Protective control of soybean rust on soybeans (PHAKPA P6). The class given is in vivo. Conditions: for PHAKPA (F129L) Disease level (%) P6 at 16 ppm: protective, inoculation six days after spraying, % diseased leaf area; for % PHAKPA (F129L) Disease level, P6 at 4 ppm: protective P6, 4 ppm; for % PHAKPA (F129L) Disease level, P6 at 16 ppm: protective P6, 16 ppm.

Assay [2] concerns Phakopsora pachyrhizi (F129L). In words: Protective control of soybean rust on soybeans (PHAKPA P2). The assay is classed as in vivo. Conditions: for % PHAKPA (F129L) Disease level, P2 at 4 ppm: protective P2, 4 ppm; for % PHAKPA (F129L) Disease level, P2 at 16 ppm: protective P2, 16 ppm.
In assay [3] the test system is Colletotrichum orbiculare. The assay is described as follows: Micro titer plate test against Colletotrichum orbiculare causing anthracnose (COLLLA). The class given is cell-based. To be noted: 0.063 ppm.
A further assay has as its system Leptosphaeria nodorum. The assay is described as follows: Micro titer plate test against Leptosphaeria nodorum causing wheat leaf spots (LEPTNO). The class given is cell-based. To be noted: 0.063 ppm.
The subject of a further assay is Pyrenophora teres (wt). The assay is described as follows: Micro titer plate test against Pyrenophora teres causing net blotch on barley (PYRNTE wt). The class given is cell-based. To be noted: 0.25 ppm.
[4] abbreviates: relative growth vs compound-free control (100%), 7 days.
[5] abbreviates: protective, inoculation 2 days after spraying, % diseased leaf area.

For the compound `CNC(=O)/C(=N/OC)c1cccc(C)c1CO/N=C(\OC)c1cccc(C(F)(F)F)c1`, the “Fungal growth (%) SEPTTR” value in the assay on Septoria tritici (setting [4]) was found to be 77%.
Consider `CO/N=C(/C(=O)OC)c1cccc(C)c1CO/N=C(\C)c1ccccc1F` [Ex. 1], for which the “PHAKPA (F129L) Disease level (%) P6 at 16 ppm” value (“PHAKPA … (%) P6 at 16 ppm” below) in assay [1] was found to be 47%. In addition, in assay [1] (soybean rust F129L), the “% PHAKPA (F129L) Disease level, P6 at 4 ppm” value (shortened to “% PHAKPA … P6 at 4 ppm”) is on record as 90% and the “% PHAKPA (F129L) Disease level, P6 at 16 ppm” value (“% PHAKPA … P6 at 16 ppm” below) amounted to 56%. Also, the “PHAKPA (F129L) Disease level (%) P2 at 16 ppm” value in assay [2] (setting [5]) was determined as 28%. Further, in assay [2] (soybean rust F129L), the “% PHAKPA (F129L) Disease level, P2 at 4 ppm” value (shortened to “% PHAKPA … P2 at 4 ppm”) came to 80% and the “% PHAKPA (F129L) Disease level, P2 at 16 ppm” value (“% PHAKPA … P2 at 16 ppm” below) amounted to 27%.
As for `CO/N=C(/C(=O)OC)c1cccc(C)c1CO/N=C(\C)c1cccc(C(F)(F)F)c1` [compound 9], in assay [1], the “PHAKPA … (%) P6 at 16 ppm” value came to 4% and the “% PHAKPA … P6 at 16 ppm” value was found to be 1%.
As for `CO/N=C(/C(=O)OC)c1cccc(C)c1CO/N=C(\C)c1cccc(OC(F)(F)F)c1` [compound 28], the “PHAKPA … (%) P6 at 16 ppm” value in assay [1] worked out at 18%. Moreover, the “% PHAKPA … P6 at 16 ppm” value in assay [1] (soybean rust F129L) is on record as 0%. In addition, in assay [2] (setting [5]), the “PHAKPA (F129L) Disease level (%) P2 at 16 ppm” value stood at 30%. Also, in assay [2] (soybean rust F129L), the “% PHAKPA … P2 at 16 ppm” value was 0%.
As to `CO/N=C(/C(=O)OC)c1cccc(C)c1CO/N=C(\C)c1cccc(C)c1` [compound 76], in assay [1], the “PHAKPA … (%) P6 at 16 ppm” value turned out to be 0% and the “% PHAKPA … P6 at 16 ppm” value is given as 4%. Besides, the “% PHAKPA … P2 at 4 ppm” value in assay [2] was found to be 35%. In addition, in the assay on Septoria tritici (setting [4]), the “Fungal growth (%) SEPTTR” value was 0%.
Turning to `CNC(=O)/C(=N/OC)c1cccc(C)c1CO/N=C(\C)c1cccc(C)c1` [compound 77], in assay [3], the “Fungal growth (%) COLLLA” value is recorded as 39%. In addition, the “Fungal growth (%) SEPTTR” value in the assay with Septoria tritici is given as 49%.
In the case of `CNC(=O)/C(=N/OC)c1cccc(C)c1CO/N=C(\C)c1ccccc1C` [compound 127], in assay [1] (soybean rust F129L), the “% PHAKPA … P6 at 4 ppm” value is on record as 93% and the “% PHAKPA … P6 at 16 ppm” value came to 62%. In assay [2] (soybean rust F129L), the “% PHAKPA … P2 at 4 ppm” value was found to be 90% and the “% PHAKPA … P2 at 16 ppm” value was determined as 44%.
With `CO/N=C(/C(=O)OC)c1cccc(C)c1CO/N=C(\C)c1cccc(Cl)c1` [compound 153], the “Fungal growth (%) COLLLA” value in assay [3] is listed as 55%. Further, in assay [1], the “PHAKPA … (%) P6 at 16 ppm” value turned out to be 1% and the “% PHAKPA … P6 at 16 ppm” value came out at 5%. Moreover, the “Fungal growth (%) LEPTNO” value with Leptosphaeria nodorum is listed as 55%. The “% PHAKPA … P2 at 4 ppm” value in assay [2] was determined as 19%. In the assay with Pyrenophora teres (wt), the “Fungal growth (%) PYRNTE wt” value turned out to be 31%. Also, the “Fungal growth (%) SEPTTR” value in the assay with Septoria tritici worked out at 0%.
On to `CNC(=O)/C(=N/OC)c1cccc(C)c1CO/N=C(\C)c1cccc(Cl)c1` [compound 157], for which the “Fungal growth (%) COLLLA” value in assay [3] is listed as 63%. Besides, the “% PHAKPA … P6 at 16 ppm” value in assay [1] was 1%. For the same compound, the “PHAKPA (F129L) Disease level (%) P2 at 4 ppm” value in assay [2] (4 ppm, protective, inoculation 2 days after spraying, % diseased leaf area) is 0%. The “% PHAKPA … P2 at 4 ppm” value in assay [2] is 1%. Also, the “Fungal growth (%) PYRNTE wt” value in the assay with Pyrenophora teres (wt) was 54%. Also, the “Fungal growth (%) SEPTTR” value with Septoria tritici amounted to 20%.
Turning to `CNC(=O)/C(=N/OC)c1cccc(C)c1CO/N=C(\CC(F)(F)F)c1ccc(F)cc1C` [compound 394], in assay [1], the “% PHAKPA … P6 at 4 ppm” value is 12% and the “% PHAKPA … P6 at 16 ppm” value turned out to be 2%. Also, in assay [2], the “% PHAKPA … P2 at 4 ppm” value was 9% and the “% PHAKPA … P2 at 16 ppm” value stood at 3%.
Turning to `C=Cc1cccc(/C(=N\OC)C(=O)NC)c1CO/N=C(\C)c1ccccc1` [compound 400], in assay [1], the “% PHAKPA … P6 at 4 ppm” value was 8% and the “% PHAKPA … P6 at 16 ppm” value is 0%. Also, in assay [2], the “% PHAKPA … P2 at 4 ppm” value is on record as 2% and the “% PHAKPA … P2 at 16 ppm” value stood at 0%.
As for `CNC(=O)/C(=N/OC)c1cccc(C)c1CO/N=C(\C)c1c(Cl)cc(Cl)cc1OC(F)(F)F` [compound 428], in assay [1], the “% PHAKPA … P6 at 4 ppm” value was 83% and the “% PHAKPA … P6 at 16 ppm” value is on record as 20%. Further, in assay [2], the “% PHAKPA … P2 at 4 ppm” value stood at 70% and the “% PHAKPA … P2 at 16 ppm” value is listed as 11%.
Turning to `CO/N=C(/C(=O)OC)c1cccc(C)c1CO/N=C(\SC)c1cccc(C)c1` [drawing 952], the “Fungal growth (%) SEPTTR” value in the assay on Septoria tritici (setting [4]) came out at 61%.
As to `CO/N=C(/C(=O)OC)c1cccc(C)c1CO/N=C(/c1cccc(C)c1)C1CC1` [drawing 953], the “Fungal growth (%) SEPTTR” value in the assay on Septoria tritici (setting [4]) turned out to be 89%.
For `CNC(=O)/C(=N/OC)c1cccc(C)c1CO/N=C(\OC)c1cccc(C)c1` [drawing 959], the “Fungal growth (%) SEPTTR” value with Septoria tritici amounted to 100%.
The same measure, in the same setting: with `CNC(=O)/C(=N/OC)c1cccc(C)c1CO/N=C(/c1cccc(C)c1)C1CC1` [drawing 960] the figure was 87%.
Same read-out and setting: in the case of `CO/N=C(/C(=O)OC)c1cccc(C)c1CO/N=C(\SC)c1cccc(Cl)c1` [drawing 962] it was 39%.
For `CO/N=C(/C(=O)OC)c1cccc(C)c1CO/N=C(/c1cccc(Cl)c1)C1CC1` [drawing 963], the “Fungal growth (%) SEPTTR” value with Septoria tritici amounted to 39%.
Still for that read-out and setting: in the case of `CNC(=O)/C(=N/OC)c1cccc(C)c1CO/N=C(\SC)c1cccc(Cl)c1` [drawing 968] it was 59%.
As to `CO/N=C(/C(=O)OC)c1cccc(C)c1CO/N=C(/c1cccc(C)c1)C1CC1` [drawing 973, reference compound], in assay [1], the “% PHAKPA … P6 at 16 ppm” value amounted to 37%. Further, the “% PHAKPA … P2 at 4 ppm” value in assay [2] turned out to be 80%.
Consider `CO/N=C(/C(=O)OC)c1cccc(C)c1CO/N=C(\SC)c1cccc(C)c1` [drawing 974, reference compound], for which the “% PHAKPA … P6 at 16 ppm” value in assay [1] turned out to be 30%. Besides, in assay [2], the “% PHAKPA … P2 at 4 ppm” value is 60%.
For the compound `CNC(=O)/C(=N/OC)c1cccc(C)c1CO/N=C(\OC)c1cccc(C)c1` [drawing 976, reference compound], the “% PHAKPA … P6 at 16 ppm” value in assay [1] is reported as 45%.
For the compound `CNC(=O)/C(=N/OC)c1cccc(C)c1CO/N=C(/c1cccc(C)c1)C1CC1` [drawing 977, reference compound], the “% PHAKPA … P6 at 16 ppm” value in assay [1] was found to be 67%. Further, in assay [2], the “% PHAKPA … P2 at 4 ppm” value is given as 67%.
Take `CNC(=O)/C(=N/OC)c1cccc(C)c1CO/N=C(\SC)c1cccc(Cl)c1` [drawing 981, reference compound]: in assay [1], the “% PHAKPA … P6 at 16 ppm” value was determined as 9%. Further, in assay [2], the “% PHAKPA … P2 at 4 ppm” value is recorded as 20%.
For the compound `CO/N=C(/C(=O)OC)c1cccc(C)c1CO/N=C(/c1cccc(Cl)c1)C1CC1` [drawing 983, reference compound], the “% PHAKPA … P6 at 16 ppm” value in assay [1] is recorded as 87%. In assay [2], the “% PHAKPA … P2 at 4 ppm” value was determined as 83%.
The like results for `CO/N=C(/C(=O)OC)c1cccc(C)c1CO/N=C(\SC)c1cccc(Cl)c1` [drawing 984, reference compound] were, in that order, 18% and 47%.
`CO/N=C(/C(=O)OC)c1cccc(C)c1CO/N=C(\OC)c1cccc(C)c1` [reference compound]: the “% PHAKPA … P6 at 16 ppm” value in assay [1] is given as 57%. Moreover, the “% PHAKPA … P2 at 4 ppm” value in assay [2] was 83%.
As for `CO/N=C(/C(=O)OC)c1cccc(C)c1CO/N=C(\OC)c1cccc(C(F)(F)F)c1` [reference compound], in assay [1], the “% PHAKPA … P6 at 16 ppm” value worked out at 23%.
Consider `CNC(=O)/C(=N/OC)c1cccc(C)c1CO/N=C(\SC)c1cccc(C(F)(F)F)c1` [reference compound], for which the “% PHAKPA … P6 at 4 ppm” value in assay [1] was 43%.
